Test results as given in US20070003608A1, “Compounds, compositions and methods for the treatment of viral infections and other medical disorders” (priority 2005, published 2007).
Like-named read-outs stand apart in the source and are kept apart here.

Columns and labels:
[1] = test system: Human Cytomegalovirus (HCMV); assay: HCMV antiviral assay, HCMV DNA quantified by DNA hybridization in MRC-5 cells; type: cell-based
[2] = test system: human lung fibroblast cells (MRC-5); details: Table 7; cited from earlier work
HSV-1 = details: Human HSV replication in MRC-5 human lung fibroblasts, DNA reduction, about 24 h; average of two experiments (HDP-CDV single determination in duplicate); cited from earlier work
[3] = test system: human lung fibroblast cells (MRC-5); assay: Cytotoxicity in vitro in MRC-5 human lung fibroblast cells, visual estimate of 50% reduction in cell number; details: MRC-5 cells, 5 days; Table 2
HIV-1 [4] = details: cited from earlier work
HT4-6C Cells = details: Table 6; cited from earlier work
[5] = Cytotoxicity in vitro in MRC-5 human lung fibroblast cells, visual estimate of 50% reduction in cell number; details: human, MRC-5 human lung fibroblast cells
Vaccinia = details: Vero cells, 1000 pfu/well, neutral red; average of 3 determinations; cited from earlier work
Cowpox = details: cited from earlier work
[6] = test system: Variola Major, Bangladesh; details: cited from earlier work
Variola Major, Yamada = details: cited from earlier work
Variola Minor Garcia = details: cited from earlier work
Vero cells = details: 50% cytotoxic concentration in Vero cells; cited from earlier work
[7] = Quantitative whole body autoradiograph after oral [2-14C] HDP-cidofovir; details: mouse, 4 hours after a 5 mg/kg oral dose of [2-14C] HDP-cidofovir
HIV-1 [8] = assay: HIV-1 plaque reduction assay in HT4-6C cells; type: cell-based; details: HIV-1 plaque reduction EC50 compared with adefovir
[9] = Human CMV replication in MRC-5 human lung fibroblasts, DNA reduction, average of 3 to 6 determinations (ADV single replication in duplicate), read-out: EC50

CCCCCCCCCCCCCCCCCCOCCCOP(=O)(O)COC(CO)Cn1ccc(N)nc1=O (stereo not drawn) [1-O-octadecylpropanediol-3-CDV, 1-O-octadecylpropanediol-3-cidofovir]
EC50 [1, 9]: 0.03 nM | CC50 [2]: 32 µM | EC50 (HSV-1): 0.003 µM | CC50 [3]: 32 µM

Nc1ncnc2c1ncn2CCOCP(=O)(O)O [Adefovir, adefovir, reference compound]
EC50 ([1]; Human betaherpesvirus 5, MRC5): 210 nM | EC50 ([1]; Human betaherpesvirus 5, MRC5, 120 h, MRC-5 cells, 5 days, DNA hybridization, preliminary experiments, second TABLE 1, read-out: HCMV EC50): 55000 nM | EC50 (HIV-1 [4]; HIV replication in HT4-6C cells, plaque reduction, average of 4 experiments, Table 6, read-out: EC50): 8.2 µM | EC50 (HIV-1 [4]; HIV-1 LAI infected HT4-6C cells, 3 days, preliminary experiments, Table 5, read-out: EC50, μM, in HIV-1 plaque reduction assay): 16 µM | CC50 (HT4-6C Cells): > 1000 µM | CC50 at 5 days [5]: > 1000 µM

CCCCCCCCCCCCCCCCCCOCCOP(=O)(O)COC(CO)Cn1ccc(N)nc1=O (stereo not drawn) [1-O-octadecylpropanediol-2-CDV, 1-O-octadecylethanediol-2-cidofovir]
EC50 [1, 9]: 40 nM

CCCCCCCCCCCCCCCCCCOCCOP1(=O)COC(Cn2ccc(N)nc2=O)CO1 (stereo not drawn) [1-O-octadecylpropanediol-2-cCDV, 1-O-octadecylethanediol-2-cyclic cidofovir]
EC50 [1, 9]: 55000 nM

CCCCCCCCCCCCCCCCOP1(=O)CO[C@@H](Cn2ccc(N)nc2=O)CO1 (stereo partly drawn) [Hexadecyl-cCDV, hexadecyl cyclic cidofovir]
EC50 [1, 9]: 100 nM | CC50 [3]: 6.5 µM

CCCCCCCCCCCCCCCCOCCCOP(=O)(O)COC(CO)Cn1ccc(N)nc1=O (stereo not drawn) [HDP-CDV, hexadecyloxypropyl-cidofovir]
EC50 ([1]; Human betaherpesvirus 5, MRC5, Human CMV replication in MRC-5 human lung fibroblasts, DNA reduction, average of 3 to 6 determinations (ADV single replication in duplicate), read-out: EC50): 0.002 nM | EC50 (Vaccinia): < 0.03 µM | EC50 (Cowpox): < 0.03 µM | EC50 [6]: 0.0015 µM | EC50 (Variola Major, Yamada): 0.0015 µM | EC50 (Variola Minor Garcia): 0.0006 µM | CC50 (Vero cells): > 0.1 µM | tissue distribution of drug [7]: distributed primarily in the GI tract as well as organs including the lung, heart, liver, and kidney | CC50 at 5 days [5]: 10 µM

CCCCCCCCCCCCCCCCOCCCOP(=O)(O)COCCn1cnc2c(N)ncnc21 [HDP-ADV, 1-O-hexadecylpropanediol-3-adefovir]
logs more active than adefovir itself (HIV-1 [8]): more than 5 logs
